# Assay results published in patent US9833495B2, “Oral treatment of inflammatory bowel disease” (Defensin Therapeutics ApS, priority 2011, dated 2017).
# Test system: DSS-induced colitis in male C57BL/6 mice
# Assay: 10-Day Dextran Sodium Sulphate (DSS)-induced colitis model in the mouse
# Assay type: in vivo
# Details: for additional DAI score without change in body weight (only stool consistency and rectal bleeding): oral, 10-day treatment
# Excerpt: 10-Day Dextran Sodium Sulphate (DSS)-Induced Colitis Model in the Mouse
# The aim of the following study was to determine the anti-inflammatory activity of human beta defensin 2 in an acute (10-days) model of inflammatory bowel disease (colitis) induced by oral dextran sodium sulphate (DSS) administration in the mouse.
# Study design: animals were divided into 5 experimental groups. Each group consisted of 10 males: Group A: Treated with Control vehicle (PBS) p.o. twice daily. Group B: Treated with methylprednisolone (1 mg/kg p.o. twice daily). Group C: Treated with hBD2 (0.05 mg/kg p.o. twice daily). Group D: Treated with hBD2 (0.5 mg/kg p.o. daily). Group E: Treated with hBD2 (5 mg/kg p.o. […]). Animal allocation to all experimental groups was done in a randomized manner. A maximum of 5 mice were housed in each cage (as per Directive 86/609/EEC). All animals were weighed on their arrival at the laboratory and prior to the administration of the test items.
# The control vehicle and hBD2 were administered orally with the use of a sterile cannula in a dosing volume of 10 ml/kg body weith. The animals of all groups received 2 doses daily (at 9.00 h and 17.00 h) of the corresponding test item (test, reference or vehicle) for 10 consecutive days (experimental days 1-10).
# Colitis was induced in mice by supplementing their drinking water with DSS 2% for 7 days. On Day 1 all mice were weighed and marked according to their experimental groups. The drinking bottle of each cage was filled with the DSS solution, making sure all bottle lids were mounted properly and that none were congested. On Day 3 any remaining solution in the bottles was emptied and refilled with fresh DSS solution. This procedure was repeated again on Day 5. On Day 8 any remaining solution was discarded and replaced with autoclaved water. Animals were sacrificed 2 days later on Day 10.
# Daily clinical assessment of DSS-treated animals was carried out, with the calculation of a validated clinical Disease Activity Index (DAI) ranging from 0 to 4 according to the following parameters: stool consistency, presence or absence of rectal bleeding and weight loss:
# Bodyweight loss was calculated as the percent difference between the original bodyweight (Day 1) and the actual bodyweight on each experimental day (2-10). The appearance of diarrhoea is defined as mucus/faecal material adherent to anal fur. Rectal bleeding is defined as diarrhoea containing visible blood/mucus or gross rectal bleeding. The maximum score of the DAI each day is 12.
# On day 10, two hours after the last administration of control vehicle, hBD2 or prednisolone, the animals were killed by an overdose of anaesthetic. Their colons were removed and their length and weight measured after exclusion of the caecum. Two sections (proximal and distal) of colon were taken from each animal and preserved in neutral buffered formalin for subsequent histological analysis (haematoxylin and eosin staining) according to the following scoring system:
# Description Score: No changes observed (0). Minimal scattered mucosal inflammatory cell infiltrates, with or without minimal epithelial hyperplasia (1). Mild scattered to diffuse inflammatory cell infiltrates, sometimes extending into the submucosa and associated with erosions, with minimal to mild epithelial hyperplasia and minimal to mild mucin depletion from goblet cells (2). Mild to moderate inflammatory cell infiltrates that were sometimes transmural, often associated with ulceration, with moderate epithelial hyperplasia and mucin depletion (3). Marked inflammatory cell infiltrates that were often transmural and associated with ulceration, with marked epithelial hyperplasia and mucin depletion (4). Marked transmural inflammation with severe ulceration and loss of intestinal glands (5). […]
# [1] = 1 mg/kg p.o. twice daily (Group B), day 10
Molecule,histological injury induced by DSS in the distal colon [1],histological injury induced by DSS in the proximal colon [1],"body weight (group B, from day 2 until the end of the study)",additional DAI score without change in body weight (only stool consistency and rectal bleeding),"effect on disease activity index (DAI) vs vehicle (reference item, 1 mg/kg p.o. twice daily)",severity of disease parameters (10-Day DSS-induced colitis model in the mouse),"Disease Activity Index (DAI) (hBD2 0.05 mg/kg p.o., Day 10, mean ± SEM, n=10, P < 0.05 vs vehicle)","body weight vs control group (high dose of test item, day 10 (P<0.05))","histological damage score of proximal and distal colons (orally administered, day 10)","effect on disease activity index (DAI) vs vehicle (three dose levels (0.05, 0.5, 5 mg/kg) via the oral route)","histological damage in the proximal colon (twice daily, at 3 dose levels, p.o., day 10)","histological damage in the distal colon (twice daily, intermediate and high dose levels, p.o., day 10)"
"C[C@H]1C[C@@H]2[C@H]([C@@H](O)C[C@@]3(C)[C@H]2CC[C@]3(O)C(=O)COC(=O)CCC(=O)O)[C@@]2(C)C=CC(=O)C=C12 [Methylprednisolone 21-hemisuccinate, reference compound]",significantly reduced,significantly reduced,significant decrease,very significant anti-inflammatory activity,significant inhibition,,,,,,,
Human beta defensin 2 (GIGDPVTCLKSGAICHPVFCPRRYKQIGTCGLPGTKCCKKP; mat_peptide; listed as Homo sapiens) [NZ39000],,,,very significant anti-inflammatory activity,,significantly reduce,8 ± 0.73,significant increase,very significant reduction,significant inhibition,significant reduction,significant reduction
